Experimental data: PMC7218169 (Frontiers in Immunology, 2020)
Read-outs that look alike come from different tables or passages of the source.

Legend:
[1] = system: histone H3 acetylation in lymphocytes; type: in vivo, human; settings: peripheral lymphocytes
Protocol: The levels of histone H3 acetylation in lymphocytes (based on FSC/SCC scatter) were determined by flow cytometry from samples taken before (0 h) and at the end of each RMD infusion (RMD1−2−3) (4 h), at 8 and 24 h (+1 day) RMD1, and at 72 h (+3 days) and 7 days after (RMD1−2−3). Cryopreserverd PBMC were thawed 4 h before use, and 500,000 cells were blocked with 600 ul of PBS/10% FBS for 20 min and stained with polyclonal rabbit anti-acetyl histoneH3 (10 μg/ml, MerckMillipore #06–599) or normal rabbit serum (control stain, LifeTechnologies #10510) for 30 min. Cells were washed and subsequently incubated with donkey anti-rabbit IgG(H+L) (6 μg/mL, LifeTechnologies #A21206) for 30 min at room temperature in the dark. Cells were washed, re-suspended in 150 μl PBS and analyzed. ~50,000 events were acquired per sample. The median fluorescence intensity (MFI) for each sample was calculated by substracting the background MFI (isotype control stain) from the anti-acetyl histoneH3 stain.

[2] = system: CD3+ T cells; type: in vivo, human; settings: over the three RMD doses; increases 3 days after each dose, maintained up to 1 week after RMD3
Protocol: Activation of T cells was determined based upon HLA-DR expression on CD3^+ T cells. Cryopreserved PBMC were thawed, and 1,000,000 cells were stained with CD3 APC-Cy7, CD4 FITC, CD8 BV510 and HLA-DR PECy7 (BioLegend #344818, 300538, 301048, and 307616, respectively). Cells were collected on an LSRII instrument (BD), and data analyzed according to the gating criteria shown in Supplementary Figure 1 using FlowJo 10 software.

[3] = system: HIV-1; type: in vivo, human
[4] = system: HIV-1; type: in vivo, human; settings: ultrasensitive single copy assay, during RMD1−2−3
Protocol: To evaluate HIV-1 RNA below 20 copies/ml, 4–8 ml of plasma samples taken before (0 h) and at the end of each RMD infusion (4 h), at 8 and 24 h (+1 day) after RMD1, and 72 h (+3 days) and 7 days after RMD1−2−3 were ultracentrifugated at 170,000 g at 4°C for 30 min and viral RNA was extracted automatically using the m2000sp Abbot device. HIV-1 RNA copies were quantified using the Abbott Real-Time HIV-1 assay (Abbott Molecular Inc.) and in-house calibration curve sets as described ([38]). The limit of detection (2 HIV-1 RNA copies/mL) was calculated relative to the plasma volume.

[5] = system: early-treated HIV-1-infected individuals; settings: in vivo
[6] = system: CD4+ T cells; settings: median; 3 days after each RMD administration; not fully recovered by day 7 after RMD3
[7] = 5 mg/m^2 BSA i.v. over 4 hours; for RMD-PK AUC1, Med: plasma, AUC0-inf non-compartmental from simulated individual concentrations

C/C=C1\NC(=O)[C@H]2CSSCC/C=C/[C@H](CC(=O)N[C@H](C(C)C)C(=O)N2)OC(=O)[C@H](C(C)C)NC1=O [RMD, Romidepsin]
6 (40) n (%): Constipation, Total n (%) [5] | Metallic taste, Total n (%) [5]
did not follow a clear pattern: Kinetics of plasma HIV-1 RNA levels [4]
3 n: Palpitations, Grade 1 n [5]
14 (93) n (%): Fatigue, Total n (%) [5] | Headache, Total n (%) [5]
9 (60) n (%): Anorexia, Total n (%) [5]
11 (73) n (%): Nausea, Total n (%) [5]
27%: Individuals who vomited the days of RMD administration, percent [5]
increased in a progressive manner: T-cell activation (proportion of CD3+/HLA-DR+ cells) [2]
2 n: Abdominal pain, Grade 2 n [5] | Constipation, Grade 2 n [5] | Rash, Grade 2 n [5] | Sweating, Grade 1 n [5] | Sweating, Grade 2 n [5]
1 n: Abdominal distension, Grade 2 n [5] | Anorexia, Grade 2 n [5] | Anxiety, Grade 2 n [5] | Dry mouth, Grade 1 n [5] | ECG: ST-elevation, Grade 1 n [5] | Hypotension, Grade 2 n [5] | Libido decrease, Grade 2 n [5] | Metallic taste, Grade 2 n [5] | Myalgia, Grade 1 n [5] | Myalgia, Grade 2 n [5] | Sepsis by Shigella sonnei (SAE), Grade 4 n [5] | Somnolence, Grade 1 n [5]
7 (47) n (%): Abdominal pain, Total n (%) [5]
2 (13) n (%): Myalgia, Total n (%) [5] | Rash, Total n (%) [5]
22 n: Grade 1-2 laboratory abnormalities related to RMD [5]
8 events: Hypophosphatemia [5]
4 n: Abdominal distension, Grade 1 n [5] | Constipation, Grade 1 n [5] | Nausea, Grade 1 n [5] | Vomits, Grade 1 n [5]
9 n: Fatigue, Grade 1 n [5] | Headache, Grade 1 n [5]
392.9: RMD-PK AUC1, Med ([7]; MAP - Non Controllers (n=10))
5 n: Abdominal pain, Grade 1 n [5] | Fatigue, Grade 2 n [5] | Headache, Grade 2 n [5] | Metallic taste, Grade 1 n [5]
248 cells/mm^3: Transient decrease of CD4+ T-cell counts [6]
one: Grade 4 creatinine kinase elevation [5]
5 events: Thrombocytopenia [5]
3 days: Time of return of acH3 to baseline values after each dose ([1]; flow cytometry)
473.5: RMD-PK AUC1, Med ([7]; MAP - Controllers (n=3))
80%: Individuals with increases in CA HIV-1 RNA above 2-fold ([3]; at any time point after RMD administrations)
4 (27) n (%): Sweating, Total n (%) [5] | Vomits, Total n (%) [5]
0 n: Abdominal distension, Grade 3 n [5] | Abdominal distension, Grade 4 n [5] | Abdominal pain, Grade 3 n [5] | Abdominal pain, Grade 4 n [5] | Anorexia, Grade 3 n [5] | Anorexia, Grade 4 n [5] | Anxiety, Grade 1 n [5] | Anxiety, Grade 3 n [5] | Anxiety, Grade 4 n [5] | Constipation, Grade 3 n [5] | Constipation, Grade 4 n [5] | Dry mouth, Grade 2 n [5] | Dry mouth, Grade 3 n [5] | Dry mouth, Grade 4 n [5] | ECG: ST-elevation, Grade 2 n [5] | ECG: ST-elevation, Grade 3 n [5] | ECG: ST-elevation, Grade 4 n [5] | Fatigue, Grade 3 n [5] | Fatigue, Grade 4 n [5] | Headache, Grade 3 n [5] | Headache, Grade 4 n [5] | Hypotension, Grade 1 n [5] | Hypotension, Grade 3 n [5] | Hypotension, Grade 4 n [5] | Libido decrease, Grade 1 n [5] | Libido decrease, Grade 3 n [5] | Libido decrease, Grade 4 n [5] | Metallic taste, Grade 3 n [5] | Metallic taste, Grade 4 n [5] | Myalgia, Grade 3 n [5] | Myalgia, Grade 4 n [5] | Nausea, Grade 3 n [5] | Nausea, Grade 4 n [5] | Palpitations, Grade 2 n [5] | Palpitations, Grade 3 n [5] | Palpitations, Grade 4 n [5] | Rash, Grade 1 n [5] | Rash, Grade 3 n [5] | Rash, Grade 4 n [5] | Sepsis by Shigella sonnei (SAE), Grade 1 n [5] | Sepsis by Shigella sonnei (SAE), Grade 2 n [5] | Sepsis by Shigella sonnei (SAE), Grade 3 n [5] | Somnolence, Grade 2 n [5] | Somnolence, Grade 3 n [5] | Somnolence, Grade 4 n [5] | Sweating, Grade 3 n [5] | Sweating, Grade 4 n [5] | Vomits, Grade 2 n [5] | Vomits, Grade 3 n [5] | Vomits, Grade 4 n [5]
8 n: Anorexia, Grade 1 n [5]
204 AE: AE recorded after RMD1−2−3 [5]
3 (20) n (%): Palpitations, Total n (%) [5]
nearly undetectable levels: RMD concentrations in plasma by 24 h after dosing ([7]; individual profiles simulated with population PK model, LC-MS/MS)
transiently increased: HIV-1 transcription (cell-associated HIV-1 RNA) ([3]; peripheral CD4+ T cells, normalized to TBP, relative to pre-RMD1, more pronounced after RMD2 and RMD3)
increased rapidly: Histone H3 acetylation (acH3) during each RMD infusion ([1]; flow cytometry MFI, remained high during 4 h)
One: Participants with grade 4 AE, sepsis by Shigella sonnei (SAE) [5]
well-tolerated: Tolerability at the regimen and dose administered [5]
1 (7) n (%): Anxiety, Total n (%) [5] | Dry mouth, Total n (%) [5] | ECG: ST-elevation, Total n (%) [5] | Hypotension, Total n (%) [5] | Libido decrease, Total n (%) [5] | Sepsis by Shigella sonnei (SAE), Total n (%) [5] | Somnolence, Total n (%) [5]
higher than 2.5 fold: Median increase of viral expression (CA HIV-1 RNA) at the end of each RMD infusion ([3]; without correction by housekeeping gene, relative to before RMD1, normalization beyond 4 hours)
7 n: Nausea, Grade 2 n [5]
5 (33) n (%): Abdominal distension, Total n (%) [5]
